The values that follow come from patent publication US8178506B2, “Oligomeric compounds and compositions for use in modulation of small non-coding RNAs” (Regulus Therapeutics Inc., priority 2003, dated 2012).

Series [1] concerns HeLa cells. Description: Cell cycle assay in HeLa cells. It is filed as cell-based, human. As to conditions: for phase of the cell cycle in which cells arrest or delay: HeLa; for % cells in cell cycle phase: G1 / % cells in cell cycle phase: G2/M / % cells in cell cycle phase: S / % cells in cell cycle phase: aneuploid / % cells in cell cycle phase: subG1: 48 hours after treatment, relative to untreated control (UTC=100).

In series [2] the test system is HuVECs. Description: Endothelial tube formation assay in HuVECs. As to conditions: 75 nM.
Series [3] concerns A549 cells. Description: Cell cycle assay in A549 cells. As to conditions: for G2/M delay or arrest, dose response / cell cycle delay or arrest (G2/M), dose response: A549, 25-, 50-; for G2/M delay or arrest, dose response: 100-, or 150 nM; for % cells in cell cycle phase: G1 / % cells in cell cycle phase: G2/M / % cells in cell cycle phase: S / % cells in cell cycle phase: aneuploid / % cells in cell cycle phase: subG1: A549 cells, relative to the untreated control cells in that phase; for % cells in cell cycle phase: G1 / % cells in cell cycle phase: G2/M / % cells in cell cycle phase: S / % cells in cell cycle phase: aneuploid / % cells in cell cycle phase: subG1 / cell cycle delay or arrest (G2/M), dose response: 24 hours; for cell cycle delay or arrest (G2/M), dose response: 100- or 150 nM. The format is cell-based, human. On the procedure: In accordance with the present invention, certain oligomeric compounds targeting miRNAs were selected for dose response studies. Using the cell cycle assay described above, the cell cycle profiles of HeLa or A549 cells treated with varying concentrations of oligomeric compounds of the present invention were assessed.
Concomittent decreases in the percentage of cells in G1-phase of the cell cycle and increases in the percentage of hypodiploid (subG1) cells were also observed.
In a further study, A549 cells were treated with 25-, 50-, 100- or 150 nM of the oligomeric compounds ISIS Numbers 338637 (SEQ ID NO: 464) targeted against mir-96, and ISIS 338769 (SEQ ID NO: 596) targeted against mir-130b, ISIS 338836 (SEQ ID NO: 663) targeted against mir-23a, and ISIS 340350 (SEQ ID NO: 855) targeted against mir-95 (Mourelatos). Cells treated with increasing concentrations of oligomeric compounds were compared to untreated cells, to assess the dose-responsiveness of the observed delay or arrest. The random-mer ISIS 29848 was used as a negative control. Cells were prepared for flow cytometry 24-hours after oligonucleotide treatment. Results of these dose response studies are shown in Table 34, where data are expressed as percentage of cells in each phase relative to the untreated control cells in that phase.

In series [4] the test system is T47D cells. In words: Caspase-3 activity assay (apoptosis) in T47D cells. As to conditions: caspase assay, 200 nM; conclusion from Tables 9-12.
Series [5] deals with PEPCK-c. Description: PEPCK-c mRNA expression in HepG2 cells. It is filed as cell-based, human. The settings on record: HepG2, 1 nM insulin, 100 nM.
Setting [6] is: HeLa cells, 150 nM oligomeric compound, 24 hours, relative to untreated control (UTC = 100).
The mark [7] stands for this setting: HeLa cells, 150 nM oligomeric compound.
The mark [8] stands for this setting: HeLa cells, 150 nM, 48 hours, relative to untreated control.

In the oligonucleotide strings, read from the 5' end, every base follows the letter of its sugar. An asterisk marks phosphorothioate; unmarked linkages are phosphodiester. Other units and linkages are bracketed, terminal groups are in braces. A string of capitals states the bases alone. e = 2'-O-(2-methoxyethyl) (MOE); [5mC] = 5-methylcytosine; d = 2'-deoxy (DNA)

On to “GGCTGTCAATTCATAGGTCAG (anti-miR; chemistry not fully specified) [ISIS 327902, uniform 2′-MOE PS; targets mir-192-1]”, for which the “phase of the cell cycle in which cells arrest or delay” value (from here on “phase of the cell cycle”) in series [1] (150 nM, 24 hours) was “G2/M-phase”; in series [1] (150 nM, 48 hours), “S- and G2/M-phases”. In addition, in series [2], the tube formation entry is “suppressed tube formation”. Moreover, the “G2/M delay or arrest, dose response” value in series [3] was “dose-responsive G2/M delay or arrest”.
Take “338637 (antisense TCAGAGCGGAGAGACACAAG; all 2'-MOE, all phosphorothioate, methylation of C not given here) [compound 338637]”: in series [1] (setting [6]), the “% cells aneuploid” value turned out to be 188%, the “% cells in cell cycle phase G1” value came to 170%, the “% cells in cell cycle phase G2/M” value is given as 84% and the “% cells in cell cycle phase S” value was 70%. For the same substance, the “% cells in cell cycle phase subG1” value in series [1] (setting [6]) is 88%. In series [1] (setting [7]), the “% cells in cell cycle phase: G1” value stood at 90%, the “% cells in cell cycle phase: G2/M” value worked out at 117%, the “% cells in cell cycle phase: S” value was found to be 109% and the “% cells in cell cycle phase: aneuploid” value amounted to 210%. Moreover, the “% cells in cell cycle phase: subG1” value in series [1] (setting [7]) was 239%. Moreover, in series [3] (25 nM), the “% cells in cell cycle phase: G1” value is on record as 100%, the “% cells in cell cycle phase: G2/M” value came out at 101%, the “% cells in cell cycle phase: S” value worked out at 99% and the “% cells in cell cycle phase: aneuploid” value is 99%. Moreover, the “% cells in cell cycle phase: subG1” value in series [3] (25 nM) stood at 89%. In series [3] (50 nM), the “% cells in cell cycle phase: G1” value turned out to be 110%, the “% cells in cell cycle phase: G2/M” value is reported as 107%, the “% cells in cell cycle phase: S” value came to 89% and the “% cells in cell cycle phase: aneuploid” value is 120%. Also, the “% cells in cell cycle phase: subG1” value in series [3] (50 nM) turned out to be 86%. In addition, in series [3] (100 nM), the “% cells in cell cycle phase: G1” value worked out at 126%, the “% cells in cell cycle phase: G2/M” value is 115%, the “% cells in cell cycle phase: S” value worked out at 73% and the “% cells in cell cycle phase: aneuploid” value stood at 146%. Besides, the “% cells in cell cycle phase: subG1” value in series [3] (100 nM) turned out to be 67%. Further, in series [3] (150 nM), the “% cells in cell cycle phase: G1” value turned out to be 123%, the “% cells in cell cycle phase: G2/M” value turned out to be 144%, the “% cells in cell cycle phase: S” value worked out at 66% and the “% cells in cell cycle phase: aneuploid” value was found to be 135%. For the same substance, in series [3] (150 nM), the “% cells in cell cycle phase: subG1” value was 216%.
For “GCTTCCCAGCGGCCTATAGT (chemistry not given here) [ISIS 338769]”, the “phase of the cell cycle” value in series [1] (150 nM, 24 hours) is on record as “G1-phase”; in series [1] (150 nM, 48 hours), “S-phase”. Moreover, the “cell cycle delay or arrest (G2/M), dose response” value (from here on “cell cycle delay or arrest (G2/M)”) in series [3] is “dose-responsive delay or arrest”.
For “ISIS 340350: SEQ ID NO: 855, targeted against mir-95 (Mourelatos) (TGCTCAATAAATACCCGTTGAA; all 2'-MOE, all phosphorothioate, methylation of C not given here)”, in that order: “G1-phase”, “S-phase” and “dose-responsive delay or arrest”.
Take “ISIS 338836: SEQ ID NO: 663, targeted against mir-23a (TCCTCGGTGGCAGAGCTCAG; all 2'-MOE, all phosphorothioate, methylation of C not given here)”: the “phase of the cell cycle” value in series [1] (150 nM, 24 hours) was “G1-phase”; in series [1] (150 nM, 48 hours), “S-phase”. Besides, in series [3], the “cell cycle delay or arrest (G2/M)” value is “dose-responsive delay or arrest”.
“ISIS 328383: chimeric 2′-MOE gapmer targeted against the mir-192-1 precursor (eA*eG*eA*eG*eG*dG*dG*dA*dG*dA*d[5mC]*dG*dA*dG*dA*eG*e[5mC]*eA*e[5mC]*eT)”: the “apoptosis in T47D cells” value in series [4] is “induce apoptosis”. Also, the “phase of the cell cycle” value in series [1] (150 nM, 24 hours) was “G2/M-phase”; in series [1] (150 nM, 48 hours), “S- and G2/M-phases”. For the same substance, the “G2/M delay or arrest, dose response” value in series [3] is given as “dose-responsive G2/M delay or arrest”.
For “ISIS 328342: SEQ ID NO: 451, targeting mir-203 (e[5mC]*eA*eA*eT*eT*dG*d[5mC]*dG*d[5mC]*dT*dA*d[5mC]*dA*dG*dA*eA*e[5mC]*eT*eG*eT)”, the “phase of the cell cycle” value in series [1] (150 nM, both 24 and 48 hours) is “G2/M-phase”. In addition, in series [3], the “G2/M delay or arrest, dose response” value is “dose-responsive G2/M delay or arrest”. In addition, the “reduction of PEPCK-c mRNA expression” value in series [5] is 61%.
As for “ISIS 338637: SEQ ID NO: 464, targeted against mir-96 (TCAGAGCGGAGAGACACAAG; all 2'-MOE, all phosphorothioate, methylation of C not given here)”, the “phase of the cell cycle” value is on record as “G1-phase” in series [1] (150 nM, 24 hours) and “S-phase” in series [1] (150 nM, 48 hours). Besides, the “cell cycle delay or arrest (G2/M)” value in series [3] was “dose-responsive delay or arrest”.
Turning to “338836 (antisense TCCTCGGTGGCAGAGCTCAG; all 2'-MOE, all phosphorothioate, methylation of C not given here) [compound 338836]”, in series [1] (setting [6]), the “% cells aneuploid” value came to 150%, the “% cells in cell cycle phase G1” value is recorded as 185%, the “% cells in cell cycle phase G2/M” value was determined as 105% and the “% cells in cell cycle phase S” value amounted to 53%. Further, in series [1] (setting [6]), the “% cells in cell cycle phase subG1” value is recorded as 153%. In series [1] (setting [7]), the “% cells in cell cycle phase: G1” value is 52%, the “% cells in cell cycle phase: G2/M” value stood at 169%, the “% cells in cell cycle phase: S” value was 152% and the “% cells in cell cycle phase: aneuploid” value is listed as 165%. In addition, the “% cells in cell cycle phase: subG1” value in series [1] (setting [7]) was 811%. Besides, in series [1] (setting [8]), the “% cells in cell cycle phase G1” value is listed as 97%, the “% cells in cell cycle phase G2/M” value came out at 121%, the “% cells in cell cycle phase S” value is on record as 96% and the “% cells in cell cycle phase aneuploid” value is reported as 114%. In series [1] (setting [8]), the “% cells in cell cycle phase subG1” value was determined as 303%. Moreover, in series [3] (25 nM), the “% cells in cell cycle phase: G1” value was determined as 97%, the “% cells in cell cycle phase: G2/M” value came out at 97%, the “% cells in cell cycle phase: S” value is reported as 103% and the “% cells in cell cycle phase: aneuploid” value came out at 99%. Moreover, the “% cells in cell cycle phase: subG1” value in series [3] (25 nM) is 76%. In series [3] (50 nM), the “% cells in cell cycle phase: G1” value was found to be 113%, the “% cells in cell cycle phase: G2/M” value is given as 98%, the “% cells in cell cycle phase: S” value amounted to 89% and the “% cells in cell cycle phase: aneuploid” value came to 111%. In series [3] (50 nM), the “% cells in cell cycle phase: subG1” value came out at 232%. Besides, in series [3] (100 nM), the “% cells in cell cycle phase: G1” value is on record as 117%, the “% cells in cell cycle phase: G2/M” value amounted to 116%, the “% cells in cell cycle phase: S” value stood at 80% and the “% cells in cell cycle phase: aneuploid” value worked out at 153%. Moreover, the “% cells in cell cycle phase: subG1” value in series [3] (100 nM) worked out at 68%. Also, in series [3] (150 nM), the “% cells in cell cycle phase: G1” value was 117%, the “% cells in cell cycle phase: G2/M” value came to 149%, the “% cells in cell cycle phase: S” value is on record as 69% and the “% cells in cell cycle phase: aneuploid” value was 114%. In series [3] (150 nM), the “% cells in cell cycle phase: subG1” value stood at 178%.
